Legend:
[1] = biological target: 5-hydroxytryptamine receptor 4 (Cavia porcellus, UniProt O70528); assay type: cell membranes, Dunkin-Hartley, Striatum, Membrane; also: in other assays of this panel Not Active means under 50% inhibition at 10 µM
[2] = biological target: T1, Amine oxidase [flavin-containing] A (Homo sapiens, UniProt P21397); assay: DRUGMATRIX: Monoamine Oxidase MAO-A enzyme inhibition (substrate: Kynuramine); design: species or system BTI-TN-5B1-4; settings: bti-tn-5b1-4; Not Active = under 50% inhibition at 10 µM
T1 sequence (P21397 whole entry): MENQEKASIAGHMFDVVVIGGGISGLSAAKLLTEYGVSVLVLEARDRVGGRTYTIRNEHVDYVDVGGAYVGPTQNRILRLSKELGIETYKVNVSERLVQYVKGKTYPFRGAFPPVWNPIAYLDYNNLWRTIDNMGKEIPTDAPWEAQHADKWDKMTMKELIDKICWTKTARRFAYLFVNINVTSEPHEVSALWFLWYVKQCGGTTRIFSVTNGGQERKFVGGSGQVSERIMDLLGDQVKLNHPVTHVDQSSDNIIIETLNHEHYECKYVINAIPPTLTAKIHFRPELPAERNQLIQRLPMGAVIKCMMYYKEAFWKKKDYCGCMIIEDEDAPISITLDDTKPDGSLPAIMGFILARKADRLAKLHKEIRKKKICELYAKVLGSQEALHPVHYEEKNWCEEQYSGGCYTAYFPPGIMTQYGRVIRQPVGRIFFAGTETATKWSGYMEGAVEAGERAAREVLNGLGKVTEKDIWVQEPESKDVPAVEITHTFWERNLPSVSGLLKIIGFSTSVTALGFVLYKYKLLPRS

[3] = biological target: T2, Muscarinic acetylcholine receptor M2 (Homo sapiens, UniProt P08172); assay type: cell membranes, CHO-K1, Membrane; settings: cho-k1; also: in other assays of this panel Not Active means under 50% inhibition at 10 µM
T2 sequence (P08172 whole entry): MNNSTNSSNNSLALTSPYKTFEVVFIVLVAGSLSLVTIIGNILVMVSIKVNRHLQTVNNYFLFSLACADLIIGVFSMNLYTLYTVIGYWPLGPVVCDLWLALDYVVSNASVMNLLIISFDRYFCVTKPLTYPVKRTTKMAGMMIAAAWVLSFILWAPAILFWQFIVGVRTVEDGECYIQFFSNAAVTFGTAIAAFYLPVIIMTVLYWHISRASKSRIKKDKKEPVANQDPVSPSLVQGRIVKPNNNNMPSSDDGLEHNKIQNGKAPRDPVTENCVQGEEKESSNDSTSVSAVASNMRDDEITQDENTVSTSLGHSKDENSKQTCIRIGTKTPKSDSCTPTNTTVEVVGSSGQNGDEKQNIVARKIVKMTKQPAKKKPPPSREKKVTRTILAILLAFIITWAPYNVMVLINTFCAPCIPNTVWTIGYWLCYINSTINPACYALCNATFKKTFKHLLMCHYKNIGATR

[4] = biological target: Matrix metalloproteinase-9 (Homo sapiens, UniProt P14780); assay type: cell-based;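 also: inhibition of isolated MMP-9 enzyme activity toward a synthetic peptide substrate, from the DrugMatrix protease screening panel; in other assays of this panel Not Active means under 50% inhibition at 10 µM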
Chain of Matrix metalloproteinase-9 (P14780 whole entry): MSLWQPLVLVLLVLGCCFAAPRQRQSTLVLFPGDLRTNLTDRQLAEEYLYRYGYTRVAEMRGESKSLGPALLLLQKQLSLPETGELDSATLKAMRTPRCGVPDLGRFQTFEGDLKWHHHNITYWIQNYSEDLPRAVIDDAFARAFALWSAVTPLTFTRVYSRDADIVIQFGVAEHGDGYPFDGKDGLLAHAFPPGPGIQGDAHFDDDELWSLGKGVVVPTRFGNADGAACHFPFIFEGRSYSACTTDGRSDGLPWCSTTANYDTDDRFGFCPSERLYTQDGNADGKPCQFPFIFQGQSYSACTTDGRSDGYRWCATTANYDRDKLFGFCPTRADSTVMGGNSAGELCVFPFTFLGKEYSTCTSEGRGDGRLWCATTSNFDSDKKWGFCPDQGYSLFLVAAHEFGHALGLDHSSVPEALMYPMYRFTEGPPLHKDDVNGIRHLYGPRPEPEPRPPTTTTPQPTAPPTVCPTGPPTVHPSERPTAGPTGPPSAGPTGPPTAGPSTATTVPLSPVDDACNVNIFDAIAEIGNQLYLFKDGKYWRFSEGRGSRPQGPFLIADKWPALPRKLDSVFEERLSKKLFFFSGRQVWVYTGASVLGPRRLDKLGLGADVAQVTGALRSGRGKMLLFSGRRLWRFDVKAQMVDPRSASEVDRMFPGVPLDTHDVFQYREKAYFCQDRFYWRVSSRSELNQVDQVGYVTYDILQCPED

[5] = biological target: Carbonic anhydrase 2 (Homo sapiens, UniProt P00918); assay: DRUGMATRIX: Carbonic Anhydrase II enzyme inhibition (substrate: 4-Nitrophenyl acetate (4-NPA)); assay type: tissue-based, Erythrocyte; settings: erythrocyte; Not Active = under 50% inhibition at 10 µM
[6] = DRUGMATRIX: Phosphodiesterase PDE3 enzyme inhibition (substrate: [3H]cAMP + cAMP); assay type: tissue-based, Homo sapiens; settings: platelet; Not Active = under 50% inhibition at 10 µM
[7] = biological target: T3, Angiotensin-converting enzyme (Oryctolagus cuniculus, UniProt P12822); assay: biochemical; assay type: tissue-based, Lung;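 also: enzymatic inhibition of angiotensin-converting enzyme measured with FAPGG as the substrate; in other assays of this panel Not Active means under 50% inhibition at 10 µM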
T3 sequence (P12822 whole entry): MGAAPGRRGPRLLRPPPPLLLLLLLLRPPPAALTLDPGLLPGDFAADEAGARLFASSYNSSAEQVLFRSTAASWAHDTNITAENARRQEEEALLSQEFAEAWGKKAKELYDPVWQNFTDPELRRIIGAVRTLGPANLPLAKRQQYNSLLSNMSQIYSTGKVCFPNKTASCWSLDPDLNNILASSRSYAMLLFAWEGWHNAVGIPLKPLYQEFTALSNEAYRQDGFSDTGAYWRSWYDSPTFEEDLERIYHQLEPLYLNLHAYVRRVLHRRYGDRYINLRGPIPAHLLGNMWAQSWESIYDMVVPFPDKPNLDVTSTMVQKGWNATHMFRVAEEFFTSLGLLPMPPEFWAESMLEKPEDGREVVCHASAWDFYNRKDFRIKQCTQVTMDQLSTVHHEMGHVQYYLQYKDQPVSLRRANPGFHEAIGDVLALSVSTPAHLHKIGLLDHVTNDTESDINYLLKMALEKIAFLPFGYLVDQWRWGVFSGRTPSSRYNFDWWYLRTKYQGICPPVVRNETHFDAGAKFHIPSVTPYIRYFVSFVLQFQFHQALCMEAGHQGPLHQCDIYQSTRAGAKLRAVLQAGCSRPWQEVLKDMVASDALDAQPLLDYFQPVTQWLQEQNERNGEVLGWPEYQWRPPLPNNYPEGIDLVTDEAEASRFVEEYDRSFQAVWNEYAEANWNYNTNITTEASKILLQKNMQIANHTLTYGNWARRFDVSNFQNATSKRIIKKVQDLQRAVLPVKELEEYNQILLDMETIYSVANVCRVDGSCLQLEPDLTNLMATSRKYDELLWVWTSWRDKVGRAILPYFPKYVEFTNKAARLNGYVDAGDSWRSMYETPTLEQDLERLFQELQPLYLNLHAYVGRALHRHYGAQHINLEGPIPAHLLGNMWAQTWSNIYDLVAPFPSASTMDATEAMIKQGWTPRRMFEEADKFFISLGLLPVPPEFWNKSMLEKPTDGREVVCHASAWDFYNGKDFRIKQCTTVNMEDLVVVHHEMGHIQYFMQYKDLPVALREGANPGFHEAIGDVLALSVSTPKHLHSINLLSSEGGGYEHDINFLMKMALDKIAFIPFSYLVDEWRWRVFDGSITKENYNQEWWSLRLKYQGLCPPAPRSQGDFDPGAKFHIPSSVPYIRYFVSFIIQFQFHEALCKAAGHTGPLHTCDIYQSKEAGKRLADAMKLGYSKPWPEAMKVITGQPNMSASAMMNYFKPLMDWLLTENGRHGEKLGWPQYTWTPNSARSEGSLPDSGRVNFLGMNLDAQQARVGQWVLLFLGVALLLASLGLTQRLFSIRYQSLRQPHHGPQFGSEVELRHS

[8] = biological target: Tyrosine-protein kinase Lck (Homo sapiens, UniProt P06239); assay: DRUGMATRIX: Protein Tyrosine Kinase, LCK enzyme inhibition (substrate: Poly(Glu:Tyr)); assay type: cell-based, Insect cells; settings: insect cells; Not Active = under 50% inhibition at 10 µM
Chain of Tyrosine-protein kinase Lck (P06239 whole entry): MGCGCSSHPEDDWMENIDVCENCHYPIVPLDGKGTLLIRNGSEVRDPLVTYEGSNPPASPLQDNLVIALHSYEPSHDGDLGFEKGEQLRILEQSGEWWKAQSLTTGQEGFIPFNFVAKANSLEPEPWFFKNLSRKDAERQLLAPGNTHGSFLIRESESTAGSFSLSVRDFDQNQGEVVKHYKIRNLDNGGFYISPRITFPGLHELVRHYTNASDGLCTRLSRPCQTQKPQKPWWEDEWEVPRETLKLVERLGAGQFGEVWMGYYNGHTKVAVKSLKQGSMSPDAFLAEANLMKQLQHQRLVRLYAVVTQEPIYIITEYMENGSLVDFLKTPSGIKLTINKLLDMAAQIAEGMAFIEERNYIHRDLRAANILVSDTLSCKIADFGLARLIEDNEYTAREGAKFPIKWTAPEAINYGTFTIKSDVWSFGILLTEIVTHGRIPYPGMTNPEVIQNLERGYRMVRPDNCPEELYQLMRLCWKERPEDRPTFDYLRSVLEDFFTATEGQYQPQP

[9] = biological target: C-C chemokine receptor type 2 (Homo sapiens, UniProt P41597); assay type: cell membranes, CHO-K1, Membrane; settings: cho-k1; also: in other assays of this panel Not Active means under 50% inhibition at 10 µM
Chain of C-C chemokine receptor type 2 (P41597 whole entry): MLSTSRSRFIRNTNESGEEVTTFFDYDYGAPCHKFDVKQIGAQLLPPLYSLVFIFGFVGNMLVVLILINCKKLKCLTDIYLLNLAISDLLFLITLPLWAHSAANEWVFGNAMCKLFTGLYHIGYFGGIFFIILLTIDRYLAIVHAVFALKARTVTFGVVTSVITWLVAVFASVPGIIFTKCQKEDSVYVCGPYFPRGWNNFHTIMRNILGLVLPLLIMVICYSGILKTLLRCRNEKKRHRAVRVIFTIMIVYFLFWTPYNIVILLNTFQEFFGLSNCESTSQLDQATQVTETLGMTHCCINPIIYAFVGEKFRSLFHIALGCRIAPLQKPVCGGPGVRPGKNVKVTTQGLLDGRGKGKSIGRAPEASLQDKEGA

[10] = DRUGMATRIX: Interleukin IL-1 radioligand binding (ligand: [125I] interleukin 1beta); assay type: cell membranes, Membrane; settings: nih3t3; Not Active = under 50% inhibition at 10 µM

Chain of 5-hydroxytryptamine receptor 4 (O70528 whole entry): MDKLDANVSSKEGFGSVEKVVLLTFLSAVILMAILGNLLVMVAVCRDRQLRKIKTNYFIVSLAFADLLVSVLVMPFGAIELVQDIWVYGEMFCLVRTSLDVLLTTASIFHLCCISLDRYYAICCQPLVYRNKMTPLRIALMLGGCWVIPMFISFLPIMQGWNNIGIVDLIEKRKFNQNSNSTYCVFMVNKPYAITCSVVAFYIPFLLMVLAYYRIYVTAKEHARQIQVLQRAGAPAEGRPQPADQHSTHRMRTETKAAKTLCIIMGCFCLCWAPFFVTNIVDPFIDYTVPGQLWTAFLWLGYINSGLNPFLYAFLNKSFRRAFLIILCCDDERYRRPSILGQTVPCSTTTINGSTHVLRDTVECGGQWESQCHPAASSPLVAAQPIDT

CN[C@@H]1[C@@H](O)[C@@H](O[C@@H]2[C@@H](O)[C@H](O[C@H]3OC(CN)=CC[C@H]3N)[C@@H](N)C[C@H]2N)OC[C@]1(C)O [SISOMICIN]
Not Active: IC50 [1] | IC50 [2] | IC50 [3] | IC50 [4] | IC50 [5] | IC50 [6] | Ki [6] | IC50 [7] | IC50 [8] | IC50 [9] | IC50 [10] | Ki [10]

CC(C)(C)NC(=O)[C@@H]1CN(Cc2cccnc2)CCN1C[C@@H](O)C[C@@H](Cc1ccccc1)C(=O)N[C@H]1c2ccccc2C[C@H]1O.O
Not Active: IC50 [1] | IC50 [2] | IC50 [3] | IC50 [4] | IC50 [5] | IC50 [6] | Ki [6] | IC50 [7] | IC50 [8] | IC50 [9] | IC50 [10] | Ki [10]

COc1cc(C(=O)NC2CCCNC2)cc(OC)c1OC (stereo unspecified) [TROXIPIDE]
Not Active: IC50 [1] | IC50 [2] | IC50 [3] | IC50 [4] | IC50 [5] | IC50 [6] | Ki [6] | IC50 [7] | IC50 [8] | IC50 [9] | IC50 [10] | Ki [10]

CC(C)(C)NCC(O)c1ccc(O)c(CO)c1 (stereo unspecified) [ALBUTEROL]
Not Active: IC50 [1] | IC50 [2] | IC50 [3] | IC50 [4] | IC50 [5] | IC50 [6] | Ki [6] | IC50 [7] | IC50 [8] | IC50 [9] | IC50 [10] | Ki [10]

CC1(C)[C@H]2CC[C@]1(C)C(=O)C2 [(-)-CAMPHOR]
Not Active: IC50 [1] | IC50 [2] | IC50 [3] | IC50 [4] | IC50 [5] | IC50 [6] | Ki [6] | IC50 [7] | IC50 [8] | IC50 [9] | IC50 [10] | Ki [10]

NNc1ccccc1 [PHENYLHYDRAZINE]
Not Active: IC50 [1] | IC50 [2] | IC50 [3] | IC50 [4] | IC50 [5] | IC50 [6] | Ki [6] | IC50 [7] | IC50 [8] | IC50 [9] | IC50 [10] | Ki [10]

CC[C@H]1OC(=O)[C@H](C)[C@@H](O[C@H]2C[C@@](C)(OC)[C@@H](O)[C@H](C)O2)[C@H](C)[C@@H](O[C@@H]2O[C@H](C)C[C@H](N(C)C)[C@H]2O)[C@](C)(O)C[C@@H](C)/C(=N\OCOCCOC)[C@H](C)[C@@H](O)[C@]1(C)O [ROXITHROMYCIN]
Not Active: IC50 [1] | IC50 [2] | IC50 [3] | IC50 [4] | IC50 [5] | IC50 [6] | Ki [6] | IC50 [7] | IC50 [8] | IC50 [9] | IC50 [10] | Ki [10]

Nc1ccc(S(=O)(=O)Nc2ccnn2-c2ccccc2)cc1 [SULFAPHENAZOLE]
Not Active: IC50 [1] | IC50 [2] | IC50 [3] | IC50 [4] | IC50 [5] | IC50 [6] | Ki [6] | IC50 [7] | IC50 [8] | IC50 [9] | IC50 [10] | Ki [10]

Reference: ChEMBL document CHEMBL1909046, “DrugMatrix in vitro pharmacology data”
